Values after ≈ are worked out from the molar mass of the structure shown.
What was measured:
SF-539 = assay: Growth inhibition of human SF539 cells incubated for 48 hrs by SRB assay; format: functional; conditions: SF-539, 48 h
HCC 2998 = assay: Growth inhibition of human HCC2998 cells incubated for 48 hrs by SRB assay; format: functional; conditions: HCC 2998, 48 h
HL-60 = assay: Growth inhibition of human HL60 cells incubated for 48 hrs by SRB assay; format: functional; conditions: HL-60, 48 h
K562 = assay: Growth inhibition of human K562 cells incubated for 48 hrs by SRB assay; format: functional; conditions: K562, 48 h
U-937 = assay: Cytotoxicity against human U937 cells incubated for 48 hrs by SRB assay; format: functional, cell-based; conditions: U-937, 48 h
SKM-1 = assay: Cytotoxicity against human SKM1 cells incubated for 48 hrs by SRB assay; format: functional, cell-based; conditions: SKM-1, 48 h

Row | GI50 (HCC 2998) [µg/mL] | GI50 (HL-60) [µg/mL] | GI50 (K562) [µg/mL] | Structure (SMILES) | GI50 (SF-539) [µg/mL] | IC50 (U-937) [nM] | IC50 (SKM-1) [nM]
1 | 0.025 to 0.099 (≈ 0.065 to 0.257 µM) | 0.025 to 0.099 (≈ 0.065 to 0.257 µM) | 0.025 to 0.099 (≈ 0.065 to 0.257 µM) | C=C1C[C@@H]2C/C=C/C(=O)C/C(C)=C\C=C\C(=O)O[C@H](C=O)C/C(C)=C/[C@H](C1)O2 | 0.025 to 0.099 (≈ 0.065 to 0.257 µM) | – | –
2 | – | – | – | C=C1C[C@@H]2C/C=C/C(=O)C/C(C)=C\C=C\C(=O)O[C@H]([C@H](O)NC(=O)/C=C\C=C\C)C/C(C)=C/[C@H](C1)O2 [ZAMPANOLIDE] | – | 1.1 to 2.9 | 1.1 to 2.9
